Measurements from BindingDB's records for patent US20250270215 (Chiesi Farmaceutici, 2025).

target: T1, TGF-beta receptor type-1 (Homo sapiens, UniProt P36897); test: In Vitro Assay
T1 sequence (P36897 whole entry): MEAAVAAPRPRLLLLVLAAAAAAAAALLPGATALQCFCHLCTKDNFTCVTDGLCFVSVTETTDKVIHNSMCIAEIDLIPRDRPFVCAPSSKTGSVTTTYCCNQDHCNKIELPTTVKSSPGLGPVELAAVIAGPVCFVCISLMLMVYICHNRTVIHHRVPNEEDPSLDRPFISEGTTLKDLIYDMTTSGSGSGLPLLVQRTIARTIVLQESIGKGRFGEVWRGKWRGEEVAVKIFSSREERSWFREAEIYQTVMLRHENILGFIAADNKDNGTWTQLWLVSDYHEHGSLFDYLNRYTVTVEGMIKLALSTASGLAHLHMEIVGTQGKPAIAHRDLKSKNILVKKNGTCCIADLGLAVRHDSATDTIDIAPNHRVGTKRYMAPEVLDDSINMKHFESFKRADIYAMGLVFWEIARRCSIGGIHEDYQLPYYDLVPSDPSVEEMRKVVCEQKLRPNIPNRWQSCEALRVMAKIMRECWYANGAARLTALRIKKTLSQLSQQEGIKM
Method: Briefly, the kinase reaction was performed by incubating 2.6 nM of the purified, commercially available human ALK5 (recombinant TGF β1 N-term GST-tagged, 80-end), a final concentration of TGFβ1 peptide 94.5 μM (Promega, T36-58) and ultra-pure ATP (Promega V915B). The ATP concentration was set at the Km value (concentration of substrate which permits the enzyme to achieve half maximal velocity (Vmax)) of ALK5 (5 μM). All reactions/incubations were performed at 25° C. Compound and ALK5 kinase were mixed and incubated for 15 mins. Reactions were initiated by addition of ATP at a final concentration in the assay of 0.83 μM. After an incubation of 150 min, the reaction was stopped, and ADP production detected with ADP-Glo kit according to manufacturer's indications. The assay was performed in 384-well format and was validated using a selection of reference compounds that was tested in 11 point concentration-response curve.

IC50, < 1 nM:
Fc1ccc(Cl)cc1-c1nc2n(c1-c1ccc3ncnn3c1)CCN2 [US20250270215, Example 2]
Cc1cccc(-c2nc3n(c2-c2cc4cnccc4s2)CC(C(=O)O)N3)n1 (stereo not drawn) [US20250270215, Example 4]
Cc1cccc(-c2nc3n(c2-c2ccc4nsnc4c2)CCN3)n1 [US20250270215, Example 17]
Clc1cccc(-c2nc3n(c2-c2cc4cnccc4s2)CCN3)n1 [US20250270215, Example 13]
Cc1csc(-c2nc3n(c2-c2ccc4ncnn4c2)CCN3)n1 [US20250270215, Example 3]
Clc1cccc(-c2nc3n(c2-c2ccc4ncnn4c2)CCN3)n1 [US20250270215, Example 12]
Cc1cccc(-c2nc3n(c2-c2ccc4nonc4c2)CCN3)n1 [US20250270215, Example 18]
Fc1ccc(Cl)cc1-c1nc2n(c1-c1cc3cnccc3s1)CCN2 [US20250270215, Example 14]
